In US10954240B2, “Compounds inhibiting leucine-rich repeat kinase enzyme activity” (Merck Sharp & Dohme Corp., priority 2014, dated 2021):

What was measured:
[1] = Rat pharmacokinetics, oral AUC; type: in vivo; conditions: single oral dose 10 mpk, plasma; for AUC: 10 mg/kg
Text: Representative Example of a Pharmacokinetic Measurement
The pharmacokinetics of a compound of the invention (amorphous free form) can be studied following single intravenous and/or oral administration to mouse, rat, dog and/or monkey. In the present study, the pharmacokinetics of selected compounds of the invention (amorphous free form) were studied following single intravenous and/or oral administration to rat. The IV solution formulations contained 30% captisol/70% water or 1/1 DMSO/PEG-400. The PO solution formulations contained 10% tween/90% PEG-400 or 40% PEG-400/25% of a aqueous HPBCD solution (20%)/35% water. All IV formulations were given as solutions and all PO doses were given as well-behaved suspensions or solutions. Animals were fasted prior to oral dosing in single-dose studies. Oral bioavailability was estimated using non-cross-over study designs (n=2 or 3). Plasma samples were assayed using protein precipitation with acetonitrile/methanol (90/10, v/v) followed by HPLC/MS/MS analysis employing positive-ion Turbo IonSpray ionization. Plasma concentration-time data were analyzed by non-compartmental methods and expressed as AUC (area under the curve) values. Holding dose constant, higher oral AUC values represent greater oral plasma exposure.
The tables above provide oral AUC values for example 1, 8, 12, 17, and 20, in which the compound was dosed in rats at 10 mpk via a method similar to that described above.

[2] = target: LRRK2 (G2019S mutation, GST-LRRK2 (amino acids 970-2527)) (Homo sapiens (Human), UniProt Q5S007, G2019S); test: LRRK2 Km ATP LanthaScreen Assay; type: biochemical; conditions: mean IC50 of several test results
LRRK2 (G2019S mutation, GST-LRRK2 (amino acids 970-2527)), sequence (Q5S007 970-2527 G2019S): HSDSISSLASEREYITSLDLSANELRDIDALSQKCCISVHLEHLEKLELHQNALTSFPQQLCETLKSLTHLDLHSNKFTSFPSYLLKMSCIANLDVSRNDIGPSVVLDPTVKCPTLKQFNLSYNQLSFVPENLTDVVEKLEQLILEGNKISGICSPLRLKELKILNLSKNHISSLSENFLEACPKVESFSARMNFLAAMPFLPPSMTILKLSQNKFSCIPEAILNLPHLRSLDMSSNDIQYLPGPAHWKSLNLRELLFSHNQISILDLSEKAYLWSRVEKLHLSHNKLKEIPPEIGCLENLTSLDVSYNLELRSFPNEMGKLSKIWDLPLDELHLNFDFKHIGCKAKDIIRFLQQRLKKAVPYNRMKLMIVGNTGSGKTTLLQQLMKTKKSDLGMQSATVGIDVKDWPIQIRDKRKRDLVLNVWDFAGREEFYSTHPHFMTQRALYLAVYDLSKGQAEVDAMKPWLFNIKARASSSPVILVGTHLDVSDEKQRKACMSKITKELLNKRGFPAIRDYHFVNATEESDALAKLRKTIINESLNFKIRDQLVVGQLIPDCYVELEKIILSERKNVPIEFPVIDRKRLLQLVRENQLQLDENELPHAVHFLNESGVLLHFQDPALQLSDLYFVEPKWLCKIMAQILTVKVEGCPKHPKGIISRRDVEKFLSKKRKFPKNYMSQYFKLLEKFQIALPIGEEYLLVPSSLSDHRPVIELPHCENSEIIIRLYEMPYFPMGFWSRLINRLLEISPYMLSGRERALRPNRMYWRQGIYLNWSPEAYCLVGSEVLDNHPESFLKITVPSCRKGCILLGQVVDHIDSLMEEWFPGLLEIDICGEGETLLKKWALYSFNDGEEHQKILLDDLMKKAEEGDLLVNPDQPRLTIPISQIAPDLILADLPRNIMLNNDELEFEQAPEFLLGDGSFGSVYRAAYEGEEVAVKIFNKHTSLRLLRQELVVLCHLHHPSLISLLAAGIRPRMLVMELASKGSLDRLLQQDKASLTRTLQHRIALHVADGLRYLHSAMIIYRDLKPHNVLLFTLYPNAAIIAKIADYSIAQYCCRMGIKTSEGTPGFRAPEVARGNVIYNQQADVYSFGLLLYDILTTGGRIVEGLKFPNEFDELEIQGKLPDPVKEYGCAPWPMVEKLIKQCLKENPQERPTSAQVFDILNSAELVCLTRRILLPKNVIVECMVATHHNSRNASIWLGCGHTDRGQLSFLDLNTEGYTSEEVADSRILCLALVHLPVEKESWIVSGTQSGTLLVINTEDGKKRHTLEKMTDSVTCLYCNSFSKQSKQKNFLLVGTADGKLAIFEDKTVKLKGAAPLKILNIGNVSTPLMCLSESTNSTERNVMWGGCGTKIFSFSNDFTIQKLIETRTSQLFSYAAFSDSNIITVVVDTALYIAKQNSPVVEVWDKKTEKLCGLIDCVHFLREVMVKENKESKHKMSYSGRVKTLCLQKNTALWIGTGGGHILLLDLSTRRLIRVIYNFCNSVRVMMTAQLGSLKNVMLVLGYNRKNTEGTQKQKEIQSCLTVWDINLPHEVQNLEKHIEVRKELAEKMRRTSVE
Text: Unless otherwise noted, all LRRK2 IC50 data presented in tables refers to the LRRK2 Km ATP LanthaScreen™ Assay that is described in the Biological Assay section.
The data presented for the Km ATP LanthaScreen™ Assay represents mean IC50 values based on several test results and may have reasonable deviations depending on the specific conditions and reagents used. Reagents for the LRRK2 Km ATP LanthaScreen™ Assay were purchased from Life Technologies Corporation.
LRRK2 Km ATP LanthaScreen™ Assay
a) 400 nl of a 1:2.15 serial dilution of test compound (98 μM top assay concentration) is spotted via Labcyte Echo to certain wells in a 384 well black, untreated plate. Control wells contain 400 nl of either DMSO or 400 nl of a known inhibitor in DMSO.
c) A 30 minute room temperature incubation is followed by addition of 10 μl of 800 nM fluorescein labeled LRRKtide peptide substrate and 186 μM ATP solution in 1× assay buffer to all wells.
d) After a 60 minute room temperature incubation, 20 μl of TR-FRET Dilution Buffer (Invitrogen PV3756B) containing 4 nM Tb-labeled anti-phospho LRRKtide antibody and 20 mM EDTA is added to all wells.
e) Plates are incubated at room temperature for 1 hour and read on an Envision™ multi-mode plate reader with LanthaScreen™ settings. Results are analysed using Assay Data Analyzer.

Structure (SMILES)	AUC [1] [µM·h]	Rat AUC 10 mpk PO [1] [µM·h]	IC50 [2] [nM]
Cn1cc(-c2ccc3cnn(-c4ccnc(N5CCOCC5)c4)c3c2)cn1 [Example 1, 4-(4-(6-(1-methyl-1H-pyrazol-4-yl)-1H-indazol-1-yl)pyridin-2-yl)morpholine]	2.1	2.1 ± 0.09	
CN(C)C(=O)CN1CCN(c2cc(-n3ncc4ccc(-c5cnn(C)c5)cc43)ccn2)CC1 [Example 20, N,N-dimethyl-2-(4-(4-(6-(1-methyl-1H-pyrazol-4-yl)-1H-indazol-1-yl)pyridin-2-yl)piperazin-1-yl)acetamide]	1	1.0 ± 0.19	34
Cn1cc(-c2ccc3cnn(-c4ccnc(N5CCN(S(C)(=O)=O)CC5)c4)c3c2)cn1 [Example 8, 6-(1-methyl-1H-pyrazol-4-yl)-1-(2-(4-(methylsulfonyl)piperazin-1-yl)pyridin-4-yl)-1H-indazole]	41	41 ± 26	45
COc1ccncc1-c1ccc2cnn(-c3ccnc(N4CCOCC4)c3)c2c1 [Example 17, 4-(4-(6-(4-methoxypyridin-3-yl)-1H-indazol-1-yl)pyridin-2-yl)morpholine]	10	10 ± 2.5	43
Cn1cc(-c2ccc3cnn(-c4ccnc(N5CC[C@@H](F)C5)c4)c3c2)cn1 [Example 12, (R)-1-(2-(3-fluoropyrrolidin-1-yl)pyridin-4-yl)-6-(1-methyl-1H-pyrazol-4-yl)-1H-indazole]	0.82		89
CCc1nnc2n1CCN(c1cc(-n3ncc4ccc(-c5cnn(C)c5)cc43)ccn1)C2 [Example 51, 3-ethyl-7-(4-(6-(1-methyl-1H-pyrazol-4-yl)-1H-indazol-1-yl)pyridin-2-yl)-5,6,7,8-tetrahydro-[1,2,4]triazolo[4,3-a]pyrazine]			217
CC(C)Oc1ccc2cnn(-c3ccnc(N4CCN(CCO)CC4)c3)c2c1 [Example 39, 2-(4-(4-(6-isopropoxy-1H-indazol-1-yl)pyridin-2-yl)piperazin-1-yl)ethanol]			193
CC(C)Oc1ccc2cnn(-c3ccnc(N4CCN(CC5CCC5)CC4)c3)c2c1 [Example 27, 1-(2-(4-(cyclobutylmethyl)piperazin-1-yl)pyridin-4-yl)-6-isopropoxy-1H-indazole]			362
Cn1cncc1-c1ccc2cnn(-c3ccnc(N4CCOCC4)c3)c2c1 [Example 6, 4-(4-(6-(1-methyl-1H-imidazol-5-yl)-1H-indazol-1-yl)pyridin-2-yl)morpholine]			119
c1cc(-n2ncc3ccc(-c4cn[nH]c4)cc32)cc(N2CCOCC2)n1 [Example 18, 4-(4-(6-(1H-pyrazol-4-yl)-1H-indazol-1-yl)pyridin-2-yl)morpholine]			73
CS(=O)(=O)N1CCN(c2cc(-n3ncc4ccc(-c5cccnc5)cc43)ncn2)CC1 [Example 62, 1-{6-[4-(methylsulfonyl)piperazin-1-yl]pyrimidin-4-yl}-6-pyridin-3-yl-1H-indazole]			486
C[C@@H]1CN(c2cc(-n3ncc4ccc(-c5cnn(C)c5)cc43)ccn2)CCO1 [Example 49, (R)-2-methyl-4-(4-(6-(1-methyl-1H-pyrazol-4-yl)-1H-indazol-1-yl)pyridin-2-yl)morpholine]			89
CC(C)Oc1ccc2cnn(-c3ccnc(N4CC(C(C)(C)O)C4)c3)c2c1 [Example 30, 2-(1-(4-(6-isopropoxy-1H-indazol-1-yl)pyridin-2-yl)azetidin-3-yl)propan-2-ol]			418
Cn1cc(-c2ccc3cnn(-c4ccnc(N5CCCCC5)c4)c3c2)cn1 [Example 45, 6-(1-methyl-1H-pyrazol-4-yl)-1-(2-(pipendin-1-yl)pyridin-4-yl)-1H-indazole]			141
CC(C)Oc1ccc2cnn(-c3ccnc(N4CCO[C@H](C)C4)c3)c2c1 [Example 29, (R)-4-(4-(6-isopropoxy-1H-indazol-1-yl)pyridin-2-yl)-2-methylmorpholine]			490
CO[C@H]1CN(c2cc(-n3ncc4ccc(-c5cnn(C)c5)cc43)ccn2)C[C@@H]1O [Example 48, (3S,4S)-4-methoxy-1-(4-(6-(1-methyl-1H-pyrazol-4-yl)-1H-indazol-1-yl)pyridin-2-yl)pyrrolidin-3-ol]			399
Cn1cc(-c2ccc3cnn(-c4cc(N5CCN(S(C)(=O)=O)CC5)ncn4)c3c2)cn1 [Example 63, 6-(1-methyl-1H-pyrazol-4-yl)-1-{6-[4-(methylsulfonyl)piperazin-1-yl]pyrimidin-4-yl}-1H-indazole]			317
C[C@H]1CN(c2cc(-n3ncc4ccc(-c5cnn(C)c5)cc43)ccn2)CCO1 [Example 50, (S)-2-methyl-4-(4-(6-(1-methyl-1H-pyrazol-4-yl)-1H-indazol-1-yl)pyridin-2-yl)morpholine]			141
Cn1cc(-c2ccc3cnn(-c4ccnc(N5CCn6ccnc6C5)c4)c3c2)cn1 [Example 52, 7-(4-(6-(1-methyl-1H-pyrazol-4-yl)-1H-indazol-1-yl)pyridin-2-yl)-5,6,7,8-tetrahydroimidazo[1,2-a]pyrazine]			189
CC(C)Oc1ccc2cnn(-c3ccnc(N4CCO[C@@H](C)C4)c3)c2c1 [Example 28, (S)-4-(4-(6-isopropoxy-1H-indazol-1-yl)pyridin-2-yl)-2-methylmorpholine]			612
Cn1cc(-c2ccc3cnn(-c4cc(N5CCOCC5)ncn4)c3c2)cn1 [Example 68, 6-(1-methyl-1H-pyrazol-4-yl)-1-(6-morpholin-4-ylpyrimidin-4-yl)-1H-indazole]			79
CS(=O)(=O)N1CCN(c2cc(-n3ncc4ccc(-c5cn[nH]c5)cc43)ncn2)CC1 [Example 66, 1-{6-[4-(methylsulfonyl)piperazin-1-yl]pyrimidin-4-yl}-6-(1H-pyrazol-4-yl)-1H-indazole]			68
CC(C)Oc1ccc2cnn(-c3ccnc(N4CCC(O)CC4)c3)c2c1 [Example 40, 1-(4-(6-isopropoxy-1H-indazol-1-yl)pyridin-2-yl)piperidin-4-ol]			378
CN1CCN(c2cc(-n3ncc4ccc(-c5cnn(C)c5)cc43)ccn2)CC1=O [Example 10, 1-methyl-4-(4-(6-(1-methyl-1H-pyrazol-4-yl)-1H-indazol-1-yl)pyridin-2-yl)piperazin-2-one]			126
CC(C)Oc1ccc2cnn(-c3ccnc(N4CC[C@H](F)C4)c3)c2c1 [Example 43, (S)-1-(2-(3-fluoropyrrolidin-1-yl)pyridin-4-yl)-6-isopropoxy-1H-indazole]			950
Cn1cc(-c2ccc3cnn(-c4ccnc(N5CCC(C)(O)C5)c4)c3c2)cn1 (stereo not shown) [Example 53, 3-methyl-1-(4-(6-(1-methyl-1H-pyrazol-4-yl)-1H-indazol-1-yl)pyridin-2-yl)pyrrolidin-3-ol]			131
